How the values were obtained:
cyclin D1 = assay: Cyclin D1 percentage degradation in Calu-1 cells (immunoblotting); format: cell-based; conditions: 16 hours
In short: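 Cyclin D1 degradation was assessed by western blot. Clarified lysates, obtained by RIPA lysis with inhibitors and centrifugation at 13,000 rpm, were normalized by BCA protein assay and separated by SDS-PAGE. Bands were detected with Western ECL Substrate on a Bio-Rad ChemiDoc MP Imaging system and quantified in Image Lab software to derive percentage degradation.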

CDK4 = biological target: T1, CDK4 (Homo sapiens, UniProt P11802); assay: CDK4 percentage degradation in Calu-1 cells (immunoblotting); format: cell-based; conditions: Calu-1 cells, 16 hours; for inhibition at 0.2 µM: 200 nM, read-out: CDK4 Degradation (200 nM); for inhibition at 10 µM: read-out: CDK4 Degradation (10 μM)
T1 construct: endogenous in cells; host or cells: Calu-1
T1 sequence (P11802 2-303 limits assumed): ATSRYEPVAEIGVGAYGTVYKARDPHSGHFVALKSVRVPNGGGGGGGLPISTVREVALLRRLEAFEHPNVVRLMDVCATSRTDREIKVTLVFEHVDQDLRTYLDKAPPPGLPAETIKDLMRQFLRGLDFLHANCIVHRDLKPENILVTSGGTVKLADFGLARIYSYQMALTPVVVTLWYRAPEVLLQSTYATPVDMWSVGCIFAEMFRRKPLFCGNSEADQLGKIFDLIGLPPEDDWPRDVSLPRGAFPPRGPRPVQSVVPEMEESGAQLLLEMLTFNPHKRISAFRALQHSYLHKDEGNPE
T1 sequence (P24385 whole entry partner): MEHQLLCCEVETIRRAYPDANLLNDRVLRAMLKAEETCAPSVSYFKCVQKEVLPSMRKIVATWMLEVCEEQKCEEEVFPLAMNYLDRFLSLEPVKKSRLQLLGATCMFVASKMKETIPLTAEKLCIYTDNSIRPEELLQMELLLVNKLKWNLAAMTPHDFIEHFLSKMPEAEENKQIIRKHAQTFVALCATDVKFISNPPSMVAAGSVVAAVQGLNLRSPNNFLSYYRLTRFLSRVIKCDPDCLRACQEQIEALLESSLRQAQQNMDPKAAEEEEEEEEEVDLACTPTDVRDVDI
T1 sequence (Q16531 2-1140 limits assumed, further chain): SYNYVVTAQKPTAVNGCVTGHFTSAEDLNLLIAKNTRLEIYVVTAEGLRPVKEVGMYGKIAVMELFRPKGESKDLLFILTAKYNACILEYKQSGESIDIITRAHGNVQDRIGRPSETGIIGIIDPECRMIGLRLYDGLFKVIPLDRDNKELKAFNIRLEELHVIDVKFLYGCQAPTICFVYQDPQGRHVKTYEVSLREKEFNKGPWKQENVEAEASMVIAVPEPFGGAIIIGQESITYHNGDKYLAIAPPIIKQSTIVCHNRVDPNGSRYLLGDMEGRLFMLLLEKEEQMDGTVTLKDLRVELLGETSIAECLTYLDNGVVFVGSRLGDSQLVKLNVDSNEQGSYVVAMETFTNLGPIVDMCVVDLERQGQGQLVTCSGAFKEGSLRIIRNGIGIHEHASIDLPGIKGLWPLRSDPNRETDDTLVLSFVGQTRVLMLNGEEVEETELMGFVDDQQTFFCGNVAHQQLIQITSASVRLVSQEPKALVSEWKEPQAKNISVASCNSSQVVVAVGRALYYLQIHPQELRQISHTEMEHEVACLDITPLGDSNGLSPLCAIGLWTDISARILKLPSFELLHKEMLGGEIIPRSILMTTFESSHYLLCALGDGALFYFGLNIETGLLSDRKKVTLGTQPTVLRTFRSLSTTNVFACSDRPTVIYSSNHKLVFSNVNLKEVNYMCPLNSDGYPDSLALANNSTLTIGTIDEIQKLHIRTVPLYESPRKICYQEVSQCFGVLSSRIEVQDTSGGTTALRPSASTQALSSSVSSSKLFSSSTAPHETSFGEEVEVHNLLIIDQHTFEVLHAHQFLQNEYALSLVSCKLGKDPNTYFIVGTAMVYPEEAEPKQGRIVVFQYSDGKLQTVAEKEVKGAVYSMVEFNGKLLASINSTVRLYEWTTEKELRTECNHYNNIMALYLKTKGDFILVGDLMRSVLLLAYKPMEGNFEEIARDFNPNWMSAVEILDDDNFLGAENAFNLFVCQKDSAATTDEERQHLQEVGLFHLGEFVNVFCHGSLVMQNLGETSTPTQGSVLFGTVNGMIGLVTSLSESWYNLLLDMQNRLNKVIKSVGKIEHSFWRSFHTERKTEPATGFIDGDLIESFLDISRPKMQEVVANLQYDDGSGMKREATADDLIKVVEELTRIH
In short: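 CDK4 degradation was measured by immunoblotting. Cells were washed in cold PBS and lysed in RIPA buffer with inhibitors for 30 min at 4° C., then spun at 13,000 rpm to clear. After BCA protein determination, lysates were heated at 99° C. for 5 min in Laemmli buffer, resolved on SDS-PAGE, imaged on a ChemiDoc MP with ECL substrate, and band intensities quantified.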

Structure (SMILES) | CyclinD1 Degradation (200 nM) (cyclin D1) | inhibition at 0.2 µM (CDK4) [%] | CyclinD1 Degradation (10 μM) (cyclin D1) | inhibition at 10 µM (CDK4) [%]
CC(=O)c1c(C)c2cnc(Nc3ccc(N4CCN(CC(=O)NCCCCCCCCCNC(=O)CNc5ccc(C(=O)Nc6ncc(C)s6)c(C)c5)CC4)cn3)nc2n(C2CCCC2)c1=O [CPD-035] | C (protein percentage degradation <50%, and >=30%) | 30 to 50 |  | 
CC(=O)c1c(C)c2cnc(Nc3ccc(N4CCN(CC(=O)NCCOCCOCCNC(=O)c5ccc(C(=O)Nc6ncc(C)s6)c(C)c5)CC4)cn3)nc2n(C2CCCC2)c1=O [CPD-010, N^4-(2-(2-(2-(2-(4-(6-((6-Acetyl-8-cyclopentyl-5-methyl-7-oxo-7,8-dihydropyrido[2,3-d]pyrimidin-2-yl)amino)pyridin-3-yl)piperazin-1-yl)acetamido)ethoxy)ethoxy)ethyl)-2-methyl-N^1-(5-methylthiazol-2-yl)terephthalamide] | D (protein percentage degradation <30%) | < 30 |  | 
CC(=O)c1c(C)c2cnc(Nc3ccc(N4CCN(CC(=O)NCCCCCCCNc5cc(C)ccc5C(=O)Nc5nc(C)c(C)s5)CC4)cn3)nc2n(C2CCCC2)c1=O [CPD-368, 2-((7-(2-(4-(6-((6-Acetyl-8-cyclopentyl-5-methyl-7-oxo-7,8-dihydropyrido[2,3-d]pyrimidin-2-yl)amino)pyridin-3-yl)piperazin-1-yl)acetamido)heptyl)amino)-N-(4,5-dimethylthiazol-2-yl)-4-methylbenzamide] | A (protein percentage degradation >=80%) | > 80 |  | 
CC(=O)c1c(C)c2cnc(Nc3ccc(N4CCN(CC(=O)NCCOCCOCCC(=O)Nc5ccccc5C(=O)Nc5nc(C6CC6)ns5)CC4)cn3)nc2n(C2CCCC2)c1=O [CPD-059, 2-(3-(2-(2-(2-(4-(6-((6-Acetyl-8-cyclopentyl-5-methyl-7-oxo-7,8-dihydropyrido[2,3-d]pyrimidin-2-yl)amino)pyridin-3-yl)piperazin-1-yl)acetamido)ethoxy)ethoxy)propanamido)-N-(3-cyclopropyl-1,2,4-thiadiazol-5-yl)benzamide] | D (protein percentage degradation <30%) | < 30 |  | 
CC(=O)c1c(C)c2cnc(Nc3ccc(N4CCN(CC(=O)NCCOCCOCCC(=O)Nc5ccccc5C(=O)Nc5cc[nH]n5)CC4)cn3)nc2n(C2CCCC2)c1=O [CPD-073, 2-(3-(2-(2-(2-(4-(6-((6-Acetyl-8-cyclopentyl-5-methyl-7-oxo-7,8-dihydropyrido[2,3-d]pyrimidin-2-yl)amino)pyridin-3-yl)piperazin-1-yl)acetamido)ethoxy)ethoxy)propanamido)-N-(1H-pyrazol-3-yl)benzamide] | D (protein percentage degradation <30%) | 50 to 80 |  | 
CC(=O)c1c(C)c2cnc(Nc3ccc(N4CCN(CC(=O)NCCOCCOCCC(=O)Nc5cc(F)ccc5C(=O)Nc5nc(C)c(C)s5)CC4)cn3)nc2n(C2CCCC2)c1=O [CPD-143, 2-(3-(2-(2-(2-(4-(6-((6-Acetyl-8-cyclopentyl-5-methyl-7-oxo-7,8-dihydropyrido[2,3-d]pyrimidin-2-yl)amino)pyridin-3-yl)piperazin-1-yl)acetamido)ethoxy)ethoxy)propanamido)-N-(4,5-dimethylthiazol-2-yl)-4-fluorobenzamide] | A (protein percentage degradation >=80%) | > 80 |  | 
CNc1ccc(C(=O)Nc2ccc(C)cn2)c(NC(=O)CCOCCOCCNC(=O)CN2CCN(c3ccc(Nc4ncc5c(C)c(C(C)=O)c(=O)n(C6CCCC6)c5n4)nc3)CC2)c1 [CPD-339, 2-(3-(2-(2-(2-(4-(6-((6-Acetyl-8-cyclopentyl-5-methyl-7-oxo-7,8-dihydropyrido[2,3-d]pyrimidin-2-yl)amino)pyridin-3-yl)piperazin-1-yl)acetamido)ethoxy)ethoxy)propanamido)-4-(methylamino)-N-(5-methylpyridin-2-yl)benzamide] | A (protein percentage degradation >=80%) | > 80 |  | 
CC(=O)c1c(C)c2cnc(Nc3ccc(N4CCN(C(=O)CCCCCCNc5ccc(C)c(C(=O)Nc6nc(C)c(C)s6)c5)CC4)cn3)nc2n(C2CCCC2)c1=O [CPD-109, 5-((7-(4-(6-((6-Acetyl-8-cyclopentyl-5-methyl-7-oxo-7,8-dihydropyrido[2,3-d]pyrimidin-2-yl)amino)pyridin-3-yl)piperazin-1-yl)-7-oxoheptyl)amino)-N-(4,5-dimethylthiazol-2-yl)-2-methylbenzamide] | D (protein percentage degradation <30%) | < 30 |  | 
CC(=O)c1c(C)c2cnc(Nc3ccc(N4CCN(CC(=O)NCCOCCOCCC(=O)Nc5ccccc5C(=O)Nc5ccc(N(C)C)nn5)CC4)cn3)nc2n(C2CCCC2)c1=O [CPD-185, 2-(3-(2-(2-(2-(4-(6-((6-Acetyl-8-cyclopentyl-5-methyl-7-oxo-7,8-dihydropyrido[2,3-d]pyrimidin-2-yl)amino)pyridin-3-yl)piperazin-1-yl)acetamido)ethoxy)ethoxy)propanamido)-N-(6-(dimethylamino)pyridazin-3-yl)benzamide] | A (protein percentage degradation >=80%) | > 80 |  | 
Cc1nc(NC(=O)c2ccccc2NC(=O)CCCCCCNC(=O)CN2CCN(c3ccc(Nc4ncc5cc(C(=O)N(C)C)n(C6CCCC6)c5n4)nc3)CC2)sc1C [CPD-291, 7-Cyclopentyl-2-((5-(4-(2-((7-((2-((4,5-dimethylthiazol-2-yl)carbamoyl)phenyl)amino)-7-oxoheptyl)amino)-2-oxoethyl)piperazin-1-yl)pyridin-2-yl)amino)-N,N-dimethyl-7H-pyrrolo[2,3-d]pyrimidine-6-carboxamide] |  |  | B (protein percentage degradation < 80%, and >= 50%) | 30 to 50
CC(=O)c1c(C)c2cnc(Nc3ccc(N4CCN(CC(=O)NCCOCCOCCOCCOCCNc5ccc(C)c(C(=O)Nc6nc(C)c(C)s6)c5)CC4)cn3)nc2n(C2CCCC2)c1=O [CPD-118, 5-((1-(4-(6-((6-Acetyl-8-cyclopentyl-5-methyl-7-oxo-7,8-dihydropyrido[2,3-d]pyrimidin-2-yl)amino)pyridin-3-yl)piperazin-1-yl)-2-oxo-6,9,12,15-tetraoxa-3-azaheptadecan-17-yl)amino)-N-(4,5-dimethylthiazol-2-yl)-2-methylbenzamide] | D (protein percentage degradation <30%) | < 30 |  | 
CC(=O)c1c(C)c2cnc(Nc3ccc(N4CCN(CC(=O)NCCCCCCCCCNC(=O)COc5ccc(C(=O)Nc6ncc(C)s6)c(C)c5)CC4)cn3)nc2n(C2CCCC2)c1=O [CPD-038, 4-(2-((9-(2-(4-(6-((6-Acetyl-8-cyclopentyl-5-methyl-7-oxo-7,8-dihydropyrido[2,3-d]pyrimidin-2-yl)amino)pyridin-3-yl)piperazin-1-yl)acetamido)nonyl)amino)-2-oxoethoxy)-2-methyl-N-(5-methylthiazol-2-yl)benzamide] | D (protein percentage degradation <30%) | < 30 |  | 
COC(=O)c1cnc(NC(=O)c2ccc(NCCOCCOCCOCCOCCOCCNC(=O)CN3CCN(c4ccc(Nc5ncc6c(C)c(C(C)=O)c(=O)n(C7CCCC7)c6n5)nc4)CC3)cc2C)s1 [CPD-032, Methyl 2-(4-((1-(4-(6-((6-acetyl-8-cyclopentyl-5-methyl-7-oxo-7,8-dihydropyrido[2,3-d]pyrimidin-2-yl)amino)pyridin-3-yl)piperazin-1-yl)-2-oxo-6,9,12,15,18-pentaoxa-3-azaicosan-20-yl)amino)-2-methylbenzamido)thiazole-5-carboxylate] | D (protein percentage degradation <30%) | < 30 |  | 
Cc1nc(NC(=O)c2ccccc2NC(=O)CNC(=O)CN2CCN(c3ccc(Nc4ncc5cc6n(c5n4)C4(CCCCC4)CNC6=O)nc3)CC2)sc1C [CPD-314, N-(4,5-Dimethylthiazol-2-yl)-2-(2-(2-(4-(6-((6′-oxo-7′,8′-dihydro-6′H-spiro[cyclohexane-1,9′-pyrazino[1′,2′:1,5]pyrrolo[2,3-d]pyrimidin]-2′-yl)amino)pyridin-3-yl)piperazin-1-yl)acetamido)acetamido)benzamide] |  |  | D (protein percentage degradation < 30%) | < 30
COc1ccc(NC(=O)c2ccccc2NC(=O)CCCCN2CCC(NC(=O)CN3CCN(c4ccc(Nc5ncc6c(C)c(C(C)=O)c(=O)n(C7CCCC7)c6n5)nc4)CC3)CC2)nn1 [CPD-346, 2-(5-(4-(2-(4-(6-((6-Acetyl-8-cyclopentyl-5-methyl-7-oxo-7,8-dihydropyrido[2,3-d]pyrimidin-2-yl)amino)pyridin-3-yl)piperazin-1-yl)acetamido)piperidin-1-yl)pentanamido)-N-(6-methoxypyridazin-3-yl)benzamide] | A (protein percentage degradation >=80%) | 50 to 80 |  | 
CC(=O)c1c(C)c2cnc(Nc3ccc(N4CCN(CC(=O)NCCOCCOCCOCCOCCNC(=O)COc5ccc(C(=O)Nc6ncc(C)s6)c(C)c5)CC4)cn3)nc2n(C2CCCC2)c1=O [CPD-041, 4-((20-(4-(6-((6-Acetyl-8-cyclopentyl-5-methyl-7-oxo-7,8-dihydropyrido[2,3-d]pyrimidin-2-yl)amino)pyridin-3-yl)piperazin-1-yl)-2,19-dioxo-6,9,12,15-tetraoxa-3,18-diazaicosyl)oxy)-2-methyl-N-(5-methylthiazol-2-yl)benzamide] | D (protein percentage degradation <30%) | < 30 |  | 

Source: US20250235543A1, “MODIFIED PROTEINS AND PROTEIN DEGRADERS” (Cullgen (Shanghai), Inc., priority 2021, published 2025)
